{
  "source": "patent US6887882B2",
  "about": "“Pharmaceutical compositions comprising chelidonine or derivatives thereof” (priority 2002, dated 2005)",
  "key": {"hKv1.5 channel": {"molecular_target": "T1, hKv1.5 channel (Homo sapiens, UniProt P22460)", "T1 construct": "expressed in transfected cells; host or cells: mouse Ltk- cells (pMSVneo vector, G418 selection)", "T1 sequence (P22460 whole entry)": "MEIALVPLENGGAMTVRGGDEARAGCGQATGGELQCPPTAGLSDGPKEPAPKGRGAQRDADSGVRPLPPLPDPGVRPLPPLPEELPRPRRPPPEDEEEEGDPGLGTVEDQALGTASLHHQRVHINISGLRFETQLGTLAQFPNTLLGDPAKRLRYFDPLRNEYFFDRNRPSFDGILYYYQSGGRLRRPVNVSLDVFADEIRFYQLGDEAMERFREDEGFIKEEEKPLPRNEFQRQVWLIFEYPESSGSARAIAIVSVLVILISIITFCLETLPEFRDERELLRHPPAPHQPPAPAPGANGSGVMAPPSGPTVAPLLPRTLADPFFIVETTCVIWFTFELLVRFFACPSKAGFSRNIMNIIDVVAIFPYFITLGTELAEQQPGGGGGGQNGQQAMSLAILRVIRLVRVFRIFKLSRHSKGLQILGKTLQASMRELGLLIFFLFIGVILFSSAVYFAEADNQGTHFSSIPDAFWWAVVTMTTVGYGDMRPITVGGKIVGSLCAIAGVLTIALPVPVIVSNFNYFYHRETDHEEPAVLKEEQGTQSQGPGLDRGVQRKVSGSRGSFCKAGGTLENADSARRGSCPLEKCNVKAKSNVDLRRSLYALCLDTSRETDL", "assay": "Voltage-dependent block of hKv1.5 channel currents expressed in Ltk-cells", "format": "cell-based", "details": "10 μM", "source_text": "To quantify the voltage-dependent block of chelidonine (compound 1), the relative steady state current, Ichelidonine/Icontrol was plotted as a function of membrane potential (FIG. 2). The steady-state currents were obtained at the end stage of 250 ms depolarizing pulses, while increasing the membrane voltage by 10 mV from −80 to +60 mV. The dotted line denotes the activation curve of hKv1.5 channel current expressed in Ltk-cells."}, "rabbit atrial tissue": {"tested_on": "rabbit atrial tissue", "assay": "Frequency-dependent effects on action potentials of rabbit atrial tissue (APD90)", "format": "cell-based", "details": "1 μM, of control APD90, n=5", "experimental": "Action potentials in rabbit atrial tissue were recorded according to the method described in thesis by Kwak, et al. (A newly synthesized benzopyran derivatives, activates the cardiac ATP-sensitive K^+ channel. J Pharmacol Exp Ther 1995, 275: 807-812).\nMale New Zealand white rabbits weighing about 2 kg were stunned with a blow on the head and hearts were rapidly excised and transferred to a dissection bath filled with Tyrode's solution saturated with 97% O2 and 3% CO2 gas mixture and each dissected tissue was mounted horizontally in a narrow channel of a tissue chamber and continuously superfused with the Tyrode's solution at 37° C. The action potentials were elicited by stimulating the cardiac cells with square pulses (1˜5 Hz, 1-ms duration, 20-30% above threshold voltage) by a stimulator. […] Tracings on the oscilloscope screen were photographed on a 35-mm film and also recorded on a physiograph (RS 3400, Gould, Cleveland, Ohio). APD90 was used for the comparison of action potential durations. APD90 represents the action potential duration at 90% repolarization, relative to the action potential duration at maximum 100% depolarization. Images on the oscilloscope screen were captured on Polaroid camera.\nWe tested whether the effect of chelidonine on action potentials of rabbit atrial myocytes are frequency-dependent or not.\nThe relative action potential durations were normalized to the APD90 value in the absence of chelidonine at each frequency. At the stimulus frequency of 1, 2, 3, 4 and 5 Hz, 1 μM chelidonine increased APD90 by 13.0±8.1% (n=5), 14.5±7.9% (n=5), 16.5±2.2% (n=5) 28.2±0.4% (n=5) or 33.0±0.3 1% (n=5) of the control APD90 in the absence of chelidonine at each frequency, respectively."}},
  "data": [
    {"smiles": "CN1Cc2c(ccc3c2OCO3)[C@@H]2[C@H]1c1cc3c(cc1C[C@@H]2O)OCO3", "note": "[Compound 1, [5bR-(5bα,6β,12bα)]-5b,6,7,12b,13, 14-hexahydro-13-methyl[1,3]benzodioxolo[5,6c]-1,3-dioxolo[4,5-i]phenanthridin-6-ol]", "values": [
      {"measurement": "voltage-dependence of block", "setting": "hKv1.5 channel; between 0 mV and +60 mV", "result": "weak voltage-dependence"},
      {"measurement": "δ value (Woodhull equation)", "setting": "hKv1.5 channel; between 0 mV and +60 mV, n=7", "result": "0.16±0.01"},
      {"measurement": "voltage-dependence of block", "setting": "hKv1.5 channel; between -30 mV and 0 mV", "result": "strong voltage-dependence"},
      {"measurement": "increase of APD90", "setting": "rabbit atrial tissue; stimulus frequency 1 Hz", "result": "13.0±8.1", "unit": "%"},
      {"measurement": "increase of APD90", "setting": "rabbit atrial tissue; stimulus frequency 2 Hz", "result": "14.5±7.9", "unit": "%"},
      {"measurement": "increase of APD90", "setting": "rabbit atrial tissue; stimulus frequency 3 Hz", "result": "16.5±2.2", "unit": "%"},
      {"measurement": "increase of APD90", "setting": "rabbit atrial tissue; stimulus frequency 4 Hz", "result": "28.2±0.4", "unit": "%"}
    ]}
  ]
}
